In PubChem BioAssay (NCI):
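All cell lines were grown in 96-well plates and treated with compound for 48 hours. The concentration for full growth arrest is given as TGI.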

Tests used:
Assay in all cases: inhibition of tumour cell growth, NCI panel, 48 h
SK-MEL-5 melanoma = system: SK-MEL-5 melanoma
K-562 leukemia = system: K-562 leukemia
SF-539 CNS = system: SF-539 CNS
SNB-19 CNS = system: SNB-19 CNS
ACHN renal = system: ACHN renal
HL-60(TB) leukemia = system: HL-60(TB) leukemia
U251 CNS = system: U251 CNS
CAKI-1 renal = system: CAKI-1 renal
MDA-MB-435 = system: MDA-MB-435
LOX IMVI melanoma = system: LOX IMVI melanoma
T-47D breast = system: T-47D breast
NCI/ADR-RES ovarian = system: NCI/ADR-RES ovarian
NCI-H226 lung = system: NCI-H226 lung

| Compound | TGI (SK-MEL-5 melanoma) | TGI (K-562 leukemia) | TGI (SF-539 CNS) | TGI (SNB-19 CNS) | TGI (ACHN renal) | TGI (HL-60(TB) leukemia) | TGI (U251 CNS) | TGI (CAKI-1 renal) | TGI (MDA-MB-435) | TGI (LOX IMVI melanoma) | TGI (T-47D breast) | TGI (NCI/ADR-RES ovarian) | TGI (NCI-H226 lung) |
| --- | --- | --- | --- | --- | --- | --- | --- | --- | --- | --- | --- | --- | --- |
| O=C1NC(=O)C(C(=O)C(=O)Nc2cc(Cl)ccc2Cl)C(=O)N1 | > 100 µM | > 100 µM | > 100 µM | > 100 µM | > 100 µM | > 100 µM | > 100 µM | – | – | – | – | – | – |
| CN1C(=O)c2ccccc2C(O)(c2ccccc2)C1(O)c1ccccc1 (configuration not stated) | > 100 µM | > 100 µM | > 100 µM | > 100 µM | > 100 µM | – | > 100 µM | > 100 µM | > 100 µM | > 100 µM | > 100 µM | > 100 µM | > 100 µM |
| Clc1ccc(Nc2ncco2)cc1Cl | > 10 µM | > 10 µM | > 10 µM | > 10 µM | > 10 µM | – | > 10 µM | > 10 µM | > 10 µM | > 10 µM | > 10 µM | > 10 µM | > 10 µM |
| CC(=O)Nc1ccc(-c2nnc(SCC(=O)Nc3cccc(C)c3)o2)cc1 | 23.1 µM | > 100 µM | 27.8 µM | – | 22.5 µM | > 100 µM | 26.3 µM | 30.4 µM | – | 15.6 µM | – | – | 30.8 µM |
| COc1ccc(-c2nc(-c3ccc(OC)cc3)n(-c3ccccc3)n2)cc1 | > 100 µM | – | > 100 µM | > 100 µM | > 100 µM | > 100 µM | > 100 µM | > 100 µM | > 100 µM | > 100 µM | > 100 µM | > 100 µM | > 100 µM |
| NC(Cc1ccc(O)cn1)C(=O)NC(C(=O)O)c1ccccc1 (configuration not stated) | > 100 µM | > 100 µM | > 100 µM | > 100 µM | > 100 µM | > 100 µM | > 100 µM | > 100 µM | > 100 µM | > 100 µM | – | > 100 µM | > 100 µM |
| CC(C)OP(=O)(OC(C)C)C(=NCCO)NNc1ccc([N+](=O)[O-])cc1 | > 100 µM | > 100 µM | > 100 µM | > 100 µM | > 100 µM | > 100 µM | > 100 µM | > 100 µM | – | > 100 µM | – | – | > 100 µM |
| Cc1ccc2nc(N)[nH]c(=O)c2c1Sc1ccncc1 | > 100 µM | > 31.6 µM | > 100 µM | > 100 µM | > 100 µM | > 100 µM | > 100 µM | > 100 µM | – | > 100 µM | – | – | – |
| O=c1oc2cc(O)ccc2c2[nH]c3cc(O)ccc3c12 | – | > 100 µM | 49.9 µM | > 100 µM | 62.5 µM | > 100 µM | > 100 µM | – | – | 33.8 µM | – | – | 78 µM |
| Cc1sc2c(c1C)C(=O)c1cccn1-2 | > 100 µM | > 100 µM | – | > 100 µM | > 100 µM | – | > 100 µM | > 100 µM | > 100 µM | > 100 µM | > 100 µM | > 100 µM | > 100 µM |
| C[N+]1=C(c2cccnc2/C=N/O)OCC1(C)C | > 100 µM | > 100 µM | > 100 µM | > 100 µM | > 100 µM | > 100 µM | > 100 µM | > 100 µM | – | > 100 µM | – | – | > 100 µM |
| CC(=O)NNc1nc(C)c(C(=O)NNC(=O)C(=O)Nc2ccc(Cl)c([N+](=O)[O-])c2)s1 | > 100 µM | 74.4 µM | > 100 µM | > 100 µM | > 100 µM | > 100 µM | > 100 µM | > 100 µM | – | > 100 µM | – | – | > 100 µM |
| CCOC(=O)c1c(N2CCCC2)[nH]c(=O)c(C(c2c(O)c(C(=O)OCC)c(N3CCCC3)[nH]c2=O)C(C)C)c1O | > 100 µM | > 100 µM | > 100 µM | > 100 µM | > 100 µM | – | > 100 µM | > 100 µM | > 100 µM | > 100 µM | > 100 µM | > 100 µM | > 100 µM |
| CC(=O)N1C(C(=O)NN2CCOCC2)CSC1c1ccccc1 (configuration not stated) | > 100 µM | > 100 µM | > 100 µM | > 100 µM | > 100 µM | – | > 100 µM | > 100 µM | > 100 µM | > 100 µM | > 100 µM | > 100 µM | > 100 µM |
| CN(C(=O)[C@H](NC(=O)OCc1ccccc1)c1ccccc1)C1CCCCC1N1CCCC1 (some centres not stated) | 41.2 µM | > 100 µM | – | > 100 µM | > 100 µM | – | > 100 µM | > 100 µM | > 100 µM | > 100 µM | > 100 µM | > 100 µM | 78 µM |
| CCOC(=O)COc1cc(-c2ccccc2F)nc2cc3c(cc12)OCO3 | > 100 µM | > 100 µM | > 100 µM | – | > 100 µM | – | > 100 µM | > 100 µM | > 100 µM | > 100 µM | > 100 µM | > 100 µM | > 100 µM |
| [N-]=[N+]=CC(=O)C1(C(=O)C=[N+]=[N-])CC1 | > 100 µM | > 100 µM | > 100 µM | > 100 µM | > 100 µM | > 100 µM | > 100 µM | – | – | > 100 µM | – | – | > 100 µM |
| NCCOc1ccc(/C(=C(/Cl)c2ccccc2)c2ccccc2)cc1 | 22.3 µM | 14.8 µM | 28.9 µM | 28.9 µM | 27.2 µM | 7.61 µM | 23.7 µM | 23.2 µM | – | 16.6 µM | – | – | 36.7 µM |
| CCOC(=O)/C=C/n1c2ccccc2c(=O)c2cc(OC)ccc21 | > 100 µM | > 100 µM | > 100 µM | > 100 µM | > 100 µM | > 100 µM | > 100 µM | > 100 µM | – | 41.3 µM | – | – | > 100 µM |
| Oc1ccc(-c2c3ccccc3c(-c3ccc(O)cc3)c3ccccc23)cc1 | > 100 µM | > 100 µM | > 100 µM | > 100 µM | > 100 µM | > 100 µM | > 100 µM | > 100 µM | – | > 100 µM | – | – | > 100 µM |
